{
  "source": "PubChem BioAssay (NCI)",
  "assay_in_all_cases": "growth of human tumour cells (NCI), 384-well format",
  "key": {"786-0 renal": {"system": "786-0 renal"}, "A498 renal": {"system": "A498 renal"}, "A549 NSCLC": {"system": "A549 NSCLC"}, "ACHN renal": {"system": "ACHN renal"}, "BT-549 breast": {"system": "BT-549 breast"}, "CAKI-1 renal": {"system": "CAKI-1 renal"}, "CCRF-CEM leukemia": {"system": "CCRF-CEM leukemia"}, "COLO 205 colon": {"system": "COLO 205 colon"}, "DU-145 prostate": {"system": "DU-145 prostate"}, "EKVX NSCLC": {"system": "EKVX NSCLC"}, "HCC-2998 colon": {"system": "HCC-2998 colon"}, "HCT-15 colon": {"system": "HCT-15 colon"}, "HL-60(TB) leukemia": {"system": "HL-60(TB) leukemia"}, "HOP-62 NSCLC": {"system": "HOP-62 NSCLC"}, "HOP-92 NSCLC": {"system": "HOP-92 NSCLC"}, "HS 578T breast": {"system": "HS 578T breast"}, "HT29 colon": {"system": "HT29 colon"}, "IGROV1 ovarian": {"system": "IGROV1 ovarian"}, "KM12 colon": {"system": "KM12 colon"}, "M14 melanoma": {"system": "M14 melanoma"}, "MALME-3M melanoma": {"system": "MALME-3M melanoma"}, "MCF7 breast": {"system": "MCF7 breast"}, "MDA-MB-231 breast": {"system": "MDA-MB-231 breast"}, "MDA-MB-435 melanoma": {"system": "MDA-MB-435 melanoma"}, "MDA-MB-468 breast": {"system": "MDA-MB-468 breast"}, "MOLT-4 leukemia": {"system": "MOLT-4 leukemia"}, "NCI-H226 lung": {"system": "NCI-H226 lung"}, "NCI-H23 lung": {"system": "NCI-H23 lung"}},
  "note": "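GI50 is the concentration that inhibits growth by half. The concentration for full growth arrest is given as TGI.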",
  "data": [
    {"smiles": "COCC1(CO)C(=O)C2CCN1CC2", "note": "(stereo unspecified)", "values": [
      {"measurement": "GI50", "setting": "786-0 renal", "value": 15.5, "unit": "µM"},
      {"measurement": "TGI", "setting": "786-0 renal", "value": 28.9, "unit": "µM"},
      {"measurement": "GI50", "setting": "A498 renal", "value": 16.7, "unit": "µM"},
      {"measurement": "TGI", "setting": "A498 renal", "value": 30.5, "unit": "µM"},
      {"measurement": "GI50", "setting": "A549 NSCLC", "value": 18.2, "unit": "µM"},
      {"measurement": "TGI", "setting": "A549 NSCLC", "value": 32.4, "unit": "µM"},
      {"measurement": "GI50", "setting": "ACHN renal", "value": 20.3, "unit": "µM"},
      {"measurement": "TGI", "setting": "ACHN renal", "value": 34.6, "unit": "µM"},
      {"measurement": "GI50", "setting": "BT-549 breast", "value": 11.5, "unit": "µM"},
      {"measurement": "TGI", "setting": "BT-549 breast", "value": 23.7, "unit": "µM"},
      {"measurement": "GI50", "setting": "CAKI-1 renal", "value": 17.1, "unit": "µM"},
      {"measurement": "TGI", "setting": "CAKI-1 renal", "value": 30.9, "unit": "µM"},
      {"measurement": "GI50", "setting": "CCRF-CEM leukemia", "value": 1.76, "unit": "µM"},
      {"measurement": "TGI", "setting": "CCRF-CEM leukemia", "value": 3.33, "unit": "µM"},
      {"measurement": "GI50", "setting": "COLO 205 colon", "value": 18.1, "unit": "µM"},
      {"measurement": "TGI", "setting": "COLO 205 colon", "value": 32.1, "unit": "µM"},
      {"measurement": "GI50", "setting": "DU-145 prostate", "value": 17.9, "unit": "µM"},
      {"measurement": "TGI", "setting": "DU-145 prostate", "value": 32, "unit": "µM"},
      {"measurement": "GI50", "setting": "EKVX NSCLC", "value": 16.9, "unit": "µM"},
      {"measurement": "TGI", "setting": "EKVX NSCLC", "value": 30.6, "unit": "µM"},
      {"measurement": "GI50", "setting": "HCC-2998 colon", "value": 17.2, "unit": "µM"},
      {"measurement": "TGI", "setting": "HCC-2998 colon", "value": 31, "unit": "µM"},
      {"measurement": "GI50", "setting": "HCT-15 colon", "value": 4.34, "unit": "µM"},
      {"measurement": "TGI", "setting": "HCT-15 colon", "value": 13.9, "unit": "µM"},
      {"measurement": "GI50", "setting": "HL-60(TB) leukemia", "value": 13, "unit": "µM"},
      {"measurement": "TGI", "setting": "HL-60(TB) leukemia", "value": 25.9, "unit": "µM"},
      {"measurement": "GI50", "setting": "HOP-62 NSCLC", "value": 1.86, "unit": "µM"},
      {"measurement": "TGI", "setting": "HOP-62 NSCLC", "value": 3.49, "unit": "µM"},
      {"measurement": "GI50", "setting": "HOP-92 NSCLC", "value": 10.9, "unit": "µM"},
      {"measurement": "TGI", "setting": "HOP-92 NSCLC", "value": 22.9, "unit": "µM"},
      {"measurement": "GI50", "setting": "HS 578T breast", "value": 13.1, "unit": "µM"},
      {"measurement": "TGI", "setting": "HS 578T breast", "value": 25.9, "unit": "µM"},
      {"measurement": "GI50", "setting": "HT29 colon", "value": 19, "unit": "µM"},
      {"measurement": "TGI", "setting": "HT29 colon", "value": 33.2, "unit": "µM"},
      {"measurement": "GI50", "setting": "IGROV1 ovarian", "value": 17.2, "unit": "µM"},
      {"measurement": "TGI", "setting": "IGROV1 ovarian", "value": 31.1, "unit": "µM"},
      {"measurement": "GI50", "setting": "KM12 colon", "value": 17.9, "unit": "µM"},
      {"measurement": "TGI", "setting": "KM12 colon", "value": 32, "unit": "µM"},
      {"measurement": "GI50", "setting": "M14 melanoma", "value": 17.8, "unit": "µM"},
      {"measurement": "TGI", "setting": "M14 melanoma", "value": 31.8, "unit": "µM"},
      {"measurement": "GI50", "setting": "MALME-3M melanoma", "value": 17.5, "unit": "µM"},
      {"measurement": "TGI", "setting": "MALME-3M melanoma", "value": 31.3, "unit": "µM"},
      {"measurement": "GI50", "setting": "MCF7 breast", "value": 3.68, "unit": "µM"},
      {"measurement": "TGI", "setting": "MCF7 breast", "value": 12.4, "unit": "µM"},
      {"measurement": "GI50", "setting": "MDA-MB-231 breast", "value": 17.7, "unit": "µM"},
      {"measurement": "TGI", "setting": "MDA-MB-231 breast", "value": 31.7, "unit": "µM"},
      {"measurement": "GI50", "setting": "MDA-MB-435 melanoma", "value": 16.9, "unit": "µM"},
      {"measurement": "TGI", "setting": "MDA-MB-435 melanoma", "value": 30.7, "unit": "µM"},
      {"measurement": "GI50", "setting": "MDA-MB-468 breast", "value": 3.28, "unit": "µM"},
      {"measurement": "TGI", "setting": "MDA-MB-468 breast", "value": 7.2, "unit": "µM"},
      {"measurement": "GI50", "setting": "MOLT-4 leukemia", "value": 2.27, "unit": "µM"},
      {"measurement": "TGI", "setting": "MOLT-4 leukemia", "value": 6.55, "unit": "µM"},
      {"measurement": "GI50", "setting": "NCI-H226 lung", "value": 21.9, "unit": "µM"},
      {"measurement": "TGI", "setting": "NCI-H226 lung", "value": 36.4, "unit": "µM"},
      {"measurement": "GI50", "setting": "NCI-H23 lung", "value": 11.8, "unit": "µM"},
      {"measurement": "TGI", "setting": "NCI-H23 lung", "value": 24.2, "unit": "µM"}
    ]}
  ]
}
